Tests used:
[1] = target: T1, recombinant integrin α4β1 (Homo sapiens, UniProt P05556+P13612); test: Integrin α4β1—VCAM-1 competition ELISA; type: binding; settings: for IC50: read-out: ELISA α4β1 Assay IC50; for ELISA Assay Ratio β1/β7: ratio of ELISA IC50s, α4β1 over α4β7
T1 construct: purchased R&D Systems 5397-A3-050
Method in brief: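 Detection of bound ligand used HRP-conjugated anti-human IgG Fc, 1 h with agitation at room temperature. This followed a 2 h room-temperature, 300 rpm equilibration of compound in the coated wells. Washes were done in 50 mM Tris, 100 mM NaCl, 1 mM MnCl2, 0.05% Tween.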

[2] = target: T2, recombinant integrin α4β7 (Homo sapiens, UniProt P13612+P26010, DEL724-798); test: Integrin α4β7—MAdCAM-1 ELISA competition assay; type: binding; settings: read-out: ELISA α4β7 Assay IC50
T2 construct: purchased R&D Systems 5397-A3-050
T2 sequence (P13612 34-970 limits assumed): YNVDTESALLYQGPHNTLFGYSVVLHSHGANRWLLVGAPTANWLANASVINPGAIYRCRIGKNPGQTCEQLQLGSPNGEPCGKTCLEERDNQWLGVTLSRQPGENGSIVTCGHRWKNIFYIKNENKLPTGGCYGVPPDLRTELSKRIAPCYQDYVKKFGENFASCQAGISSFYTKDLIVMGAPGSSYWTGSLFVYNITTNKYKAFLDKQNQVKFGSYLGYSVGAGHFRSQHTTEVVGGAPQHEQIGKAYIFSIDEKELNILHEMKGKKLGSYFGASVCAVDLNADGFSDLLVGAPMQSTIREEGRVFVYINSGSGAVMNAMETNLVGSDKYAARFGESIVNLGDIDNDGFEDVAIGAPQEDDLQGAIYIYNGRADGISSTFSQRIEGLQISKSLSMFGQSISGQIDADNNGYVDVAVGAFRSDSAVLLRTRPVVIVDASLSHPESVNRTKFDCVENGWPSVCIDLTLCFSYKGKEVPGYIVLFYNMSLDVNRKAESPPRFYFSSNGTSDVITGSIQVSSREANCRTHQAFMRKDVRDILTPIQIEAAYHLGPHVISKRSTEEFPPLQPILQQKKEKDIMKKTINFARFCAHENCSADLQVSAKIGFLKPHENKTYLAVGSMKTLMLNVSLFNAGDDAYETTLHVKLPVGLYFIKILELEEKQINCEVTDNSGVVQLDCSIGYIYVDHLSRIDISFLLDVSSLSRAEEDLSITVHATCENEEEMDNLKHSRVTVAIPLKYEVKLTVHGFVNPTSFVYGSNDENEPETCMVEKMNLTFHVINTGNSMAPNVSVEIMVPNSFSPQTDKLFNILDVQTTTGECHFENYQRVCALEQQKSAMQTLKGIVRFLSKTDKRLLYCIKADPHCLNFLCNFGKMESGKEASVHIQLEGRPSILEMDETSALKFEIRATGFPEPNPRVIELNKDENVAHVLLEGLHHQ
T2 sequence (P26010 20-723 limits assumed): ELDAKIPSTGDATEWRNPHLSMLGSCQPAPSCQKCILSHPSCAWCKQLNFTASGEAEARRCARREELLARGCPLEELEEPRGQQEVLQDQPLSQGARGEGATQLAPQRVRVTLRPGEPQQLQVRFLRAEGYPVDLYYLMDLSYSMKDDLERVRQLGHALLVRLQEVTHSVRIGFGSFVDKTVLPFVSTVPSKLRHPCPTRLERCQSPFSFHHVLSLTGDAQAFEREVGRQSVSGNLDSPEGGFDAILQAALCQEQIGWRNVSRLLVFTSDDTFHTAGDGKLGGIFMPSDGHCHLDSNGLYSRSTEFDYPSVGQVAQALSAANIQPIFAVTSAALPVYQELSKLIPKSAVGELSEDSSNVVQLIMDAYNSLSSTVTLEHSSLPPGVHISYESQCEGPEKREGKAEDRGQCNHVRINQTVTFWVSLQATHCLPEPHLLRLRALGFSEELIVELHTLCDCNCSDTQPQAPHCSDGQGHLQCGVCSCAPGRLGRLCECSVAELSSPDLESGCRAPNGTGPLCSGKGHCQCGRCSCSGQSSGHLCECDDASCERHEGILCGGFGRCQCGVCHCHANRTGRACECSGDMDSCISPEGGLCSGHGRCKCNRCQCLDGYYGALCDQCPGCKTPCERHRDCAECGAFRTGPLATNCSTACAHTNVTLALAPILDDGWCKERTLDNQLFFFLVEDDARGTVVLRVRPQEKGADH

T1 sequence (P05556 21-728 limits assumed, one chain of several): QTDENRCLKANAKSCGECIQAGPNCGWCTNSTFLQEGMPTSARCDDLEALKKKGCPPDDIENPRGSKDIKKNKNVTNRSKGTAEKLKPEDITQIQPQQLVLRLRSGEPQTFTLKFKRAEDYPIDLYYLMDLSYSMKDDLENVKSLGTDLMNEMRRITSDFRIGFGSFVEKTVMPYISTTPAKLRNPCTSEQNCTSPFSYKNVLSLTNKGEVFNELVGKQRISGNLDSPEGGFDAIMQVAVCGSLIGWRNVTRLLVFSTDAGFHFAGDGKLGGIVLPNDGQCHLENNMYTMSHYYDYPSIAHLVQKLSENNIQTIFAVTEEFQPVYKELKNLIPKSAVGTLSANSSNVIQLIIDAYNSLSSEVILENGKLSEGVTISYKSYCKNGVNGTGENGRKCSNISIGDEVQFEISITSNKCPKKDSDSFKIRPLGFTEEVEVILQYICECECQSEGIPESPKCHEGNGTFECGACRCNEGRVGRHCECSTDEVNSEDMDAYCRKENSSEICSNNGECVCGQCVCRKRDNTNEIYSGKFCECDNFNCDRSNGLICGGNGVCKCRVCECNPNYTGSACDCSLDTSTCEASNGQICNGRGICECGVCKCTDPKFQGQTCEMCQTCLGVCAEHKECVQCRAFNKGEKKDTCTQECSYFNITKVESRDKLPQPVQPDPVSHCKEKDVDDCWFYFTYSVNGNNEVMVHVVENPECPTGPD

SMILES	IC50 [1] [nM]	IC50 [2] [nM]	ELISA Assay Ratio β1/β7 [1]	ELISA Assay Ratio b1/b7 ([1]; ratio of ELISA IC50 b1 to b7)
CC(C)C[C@@H]1NC(=O)c2ccc(-c3ccc(N4CCN(C(=O)c5cc(F)ccc5-c5ccc(F)cc5C(=O)N5CCN(c6ccc(-c7ccc8cc7CNC(=O)[C@@H]7CCCN7[C@H](C(=O)NC(C)(C)C)[C@H](C)NC(=O)[C@H]([C@@H](C)O)NC(=O)[C@H](CC(=O)O)NC(=O)[C@H](CC(C)C)NC8=O)cc6)CC5)CC4)cc3)c(c2)CNC(=O)[C@@H]2CCCN2[C@H](C(=O)NC(C)(C)C)[C@H](C)NC(=O)[C@H]([C@@H](C)O)NC(=O)[C@H](CC(=O)O)NC1=O [Compound 475]	1.1	11		
CC(C)C[C@@H]1NC(=O)C[C@H](CCCCN)N(C)C(=O)[C@H](CCCCNC(=O)CCCCCCCC(=O)NCCCC[C@@H]2NC(=O)[C@@H]3CCCN3[C@H](C(=O)NC(C)(C)C)[C@H](C)NC(=O)[C@H]([C@@H](C)O)NC(=O)[C@H](CC(=O)O)NC(=O)[C@H](CC(C)C)NC(=O)C[C@H](CCCCN)N(C)C2=O)NC(=O)[C@@H]2CCCN2[C@H](C(=O)NC(C)(C)C)[C@H](C)NC(=O)[C@H]([C@@H](C)O)NC(=O)[C@H](CC(=O)O)NC1=O [Compound 533]	6.2	5	1.2	
CC(C)C[C@@H]1NC(=O)C[C@H](CCCCN)N(C)C(=O)[C@H](CCCCNC(=O)c2cc(C(=O)NCCCC[C@@H]3NC(=O)[C@@H]4CCCN4[C@H](C(=O)NC(C)(C)C)[C@H](C)NC(=O)[C@H]([C@@H](C)O)NC(=O)[C@H](CC(=O)O)NC(=O)[C@H](CC(C)C)NC(=O)C[C@H](CCCCN)N(C)C3=O)cc(C(=O)NCCCC[C@@H]3NC(=O)[C@@H]4CCCN4[C@H](C(=O)NC(C)(C)C)[C@H](C)NC(=O)[C@H]([C@@H](C)O)NC(=O)[C@H](CC(=O)O)NC(=O)[C@H](CC(C)C)NC(=O)C[C@H](CCCCN)N(C)C3=O)c2)NC(=O)[C@@H]2CCCN2[C@H](C(=O)NC(C)(C)C)[C@H](C)NC(=O)[C@H]([C@@H](C)O)NC(=O)[C@H](CC(=O)O)NC1=O [Compound 538]	13	10	1.3	
CC(C)C[C@@H]1NC(=O)c2ccc(-c3ccc(N4CCN(c5ncc([N+](=O)[O-])c(N6CCN(c7ccc(-c8ccc9cc8CNC(=O)[C@@H]8CCCN8[C@H](C(=O)NC(C)(C)C)[C@H](C)NC(=O)[C@H]([C@@H](C)O)NC(=O)[C@H](CC(=O)O)NC(=O)[C@H](CC(C)C)NC9=O)cc7)CC6)n5)CC4)cc3)c(c2)CNC(=O)[C@@H]2CCCN2[C@H](C(=O)NC(C)(C)C)[C@H](C)NC(=O)[C@H]([C@@H](C)O)NC(=O)[C@H](CC(=O)O)NC1=O [Compound 468]	10	32	0.3	
CC(C)C[C@@H]1NC(=O)c2ccc(-c3ccc(N4CCN(C(=O)c5ccccc5-c5ccccc5C(=O)N5CCN(c6ccc(-c7ccc8cc7CNC(=O)[C@@H]7CCCN7[C@H](C(=O)NC(C)(C)C)[C@H](C)NC(=O)[C@H]([C@@H](C)O)NC(=O)[C@H](CC(=O)O)NC(=O)[C@H](CC(C)C)NC8=O)cc6)CC5)CC4)cc3)c(c2)CNC(=O)[C@@H]2CCCN2[C@H](C(=O)NC(C)(C)C)[C@H](C)NC(=O)[C@H]([C@@H](C)O)NC(=O)[C@H](CC(=O)O)NC1=O [Compound 517]	2.1	7.5		
CC(C)C[C@@H]1NC(=O)c2ccc(-c3ccc(N4CCN(CCC(=O)N5CCN(c6ccc(-c7ccc8cc7CNC(=O)[C@@H]7CCCN7[C@H](C(=O)NC(C)(C)C)[C@H](C)NC(=O)[C@H]([C@@H](C)O)NC(=O)[C@H](CC(=O)O)NC(=O)[C@H](CC(C)C)NC8=O)cc6)CC5)CC4)cc3)c(c2)CNC(=O)[C@@H]2CCCN2[C@H](C(=O)NC(C)(C)C)[C@H](C)NC(=O)[C@H]([C@@H](C)O)NC(=O)[C@H](CC(=O)O)NC1=O [Compound 482]	1.5			
CC(C)C[C@@H]1NC(=O)C[C@H](CCCCN)N(C)C(=O)[C@H](CCCCN)NC(=O)[C@@H]2CCCN2[C@H](C(=O)NC(C)(C)C)[C@H](C)NC(=O)[C@H]([C@@H](C)O)NC(=O)[C@H](CC(=O)O)NC1=O [Compound 456]				1.5

Reference: patent US11713338B2, “Cyclic peptides multimers targeting α-4-β-7 integrin” (priority 2016, dated 2023)
